Among the test systems are PC-3 prostate; T-47D breast; DU-145 prostate; MCF7 breast; NCI/ADR-RES ovarian.
Holding throughout (test): NCI anticancer screen, dose series, 48 h

The record followed here is PubChem BioAssay (NCI).

Structures are written as SMILES.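 How tested: cells in 96-well plates exposed to compound for 48 hours at five concentrations. GI50 is the concentration that inhibits growth by half. TGI is the concentration that stops growth completely.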 Bounds are passed on as bounds.

Take `CCOC(=O)Nc1ccc2nc(Sc3ccc(Cl)cc3)sc2c1`: the GI50 with PC-3 prostate is 4.27 µM; with T-47D breast, 5.93 µM; with DU-145 prostate, 4.33 µM; in the assay on MCF7 breast, 1.66 µM; in the assay on NCI/ADR-RES ovarian, 1.07 µM. The TGI in the assay on PC-3 prostate was over 100 µM; with T-47D breast, over 78.7 µM; with DU-145 prostate, over 48.5 µM; in the assay with MCF7 breast, over 58.7 µM; in the assay with NCI/ADR-RES ovarian it was 47.3 µM.

For `c1ccc2c(Nc3ccc4c(c3)OCO4)c3ccoc3nc2c1`, the GI50 with PC-3 prostate was 18.9 µM; in the assay with T-47D breast, 29.3 µM; with DU-145 prostate, 14 µM; with MCF7 breast it was 12.6 µM; with NCI/ADR-RES ovarian, 7.66 µM. In addition, the TGI in the assay on PC-3 prostate was 95.5 µM; in the assay with T-47D breast it was over 100 µM; in the assay with DU-145 prostate it was 31.2 µM; in the assay with MCF7 breast it was over 100 µM; in the assay with NCI/ADR-RES ovarian it was 75.5 µM.

Consider `N#CSc1cc(-c2nc3ccccc3o2)ccc1N`, for which the GI50 was 12.5 µM in the assay with PC-3 prostate; 7.5 µM with T-47D breast; over 67.7 µM with DU-145 prostate; 14.5 µM in the assay on MCF7 breast; 22.2 µM in the assay on NCI/ADR-RES ovarian. In addition, the TGI with PC-3 prostate is 81.6 µM; in the assay on T-47D breast it was 90 µM; in the assay on DU-145 prostate it was over 100 µM; in the assay on MCF7 breast, over 84.8 µM; in the assay on NCI/ADR-RES ovarian it was 87.5 µM.

Consider `COc1ccc(OC)c(/C=C/C(=O)c2ccc(SC)cc2)c1`, for which the GI50 is 3.49 µM in the assay with PC-3 prostate; 18.1 µM in the assay with T-47D breast; 4.37 µM in the assay on DU-145 prostate; 3.98 µM with MCF7 breast; 3.28 µM in the assay with NCI/ADR-RES ovarian. For the same compound, the TGI with PC-3 prostate is 14.9 µM; in the assay on T-47D breast, over 100 µM; in the assay on DU-145 prostate, 18.3 µM; with MCF7 breast it was 12.8 µM; in the assay on NCI/ADR-RES ovarian, 11.8 µM.

With `CCN(Cc1cccc(C)c1)c1ccc(CO)c(Cl)c1`, the GI50 is 12.6 µM in the assay on PC-3 prostate; 0.294 µM in the assay with T-47D breast; 14.8 µM in the assay with DU-145 prostate; 0.366 µM with MCF7 breast; 11.3 µM with NCI/ADR-RES ovarian. Moreover, the TGI with PC-3 prostate was determined as 26.1 µM; in the assay with T-47D breast, 1.81 µM; in the assay on DU-145 prostate, 28.9 µM; in the assay with MCF7 breast, 11.1 µM; in the assay with NCI/ADR-RES ovarian it was 24.5 µM.

Take `Cn1cc(C2=C(c3cccc(Cl)c3)C(=O)NC2=O)c2ccccc21`: the GI50 with PC-3 prostate is 18.3 µM; with T-47D breast, 20 µM; in the assay on DU-145 prostate, over 25 µM; in the assay with MCF7 breast it was over 25 µM; in the assay on NCI/ADR-RES ovarian, over 25 µM. Also, the TGI in the assay on PC-3 prostate, in the assay on T-47D breast, with DU-145 prostate, in the assay with MCF7 breast and with NCI/ADR-RES ovarian was over 25 µM in each case.

On to `S=C1NC2=C(CCOc3c2ccc2ccccc32)C(c2ccc(Cl)cc2)N1` (stereo not given), for which the GI50 in the assay on PC-3 prostate was 35.8 µM; in the assay with T-47D breast, 3.36 µM; with DU-145 prostate, 27.9 µM; in the assay with MCF7 breast it was 16.2 µM; with NCI/ADR-RES ovarian, 31.9 µM. The TGI in the assay with PC-3 prostate is over 100 µM; in the assay with T-47D breast, 17.2 µM; in the assay on DU-145 prostate, over 100 µM; in the assay on MCF7 breast it was over 100 µM; with NCI/ADR-RES ovarian, over 100 µM.

On to `c1ccc(-c2nn(-c3ccccc3)[n+](-c3ccccc3-c3ccccc3)n2)cc1`, for which the GI50 is 0.37 µM with PC-3 prostate; 0.974 µM in the assay on T-47D breast; 3.11 µM in the assay on DU-145 prostate; 0.462 µM in the assay on MCF7 breast; over 78.7 µM in the assay on NCI/ADR-RES ovarian. The TGI in the assay on PC-3 prostate is 6.18 µM; in the assay on T-47D breast it was over 42.1 µM; in the assay on DU-145 prostate, over 71.7 µM; with MCF7 breast, 11.5 µM; with NCI/ADR-RES ovarian, over 100 µM.

For the compound `O=C(CN1CCN(c2cc3c(cc2F)c(=O)c(C(=O)O)cn3C2CC2)CC1)Nc1ccc(C(=O)/C=C/c2ccccc2)cc1`, the GI50 in the assay on PC-3 prostate is 3.16 µM; with T-47D breast it was 6.66 µM; in the assay on DU-145 prostate, 3.74 µM; in the assay on MCF7 breast, 3.52 µM; in the assay on NCI/ADR-RES ovarian it was 9.75 µM. In addition, the TGI in the assay on PC-3 prostate, with T-47D breast, in the assay on DU-145 prostate, with MCF7 breast and with NCI/ADR-RES ovarian was over 100 µM each time.

Turning to `Cc1cccc(Cc2cnc(NC(=O)/C=C/c3ccco3)s2)c1`, the GI50 in the assay on PC-3 prostate is 0.04 µM; in the assay with T-47D breast, 0.033 µM; in the assay with DU-145 prostate, 0.0382 µM; with MCF7 breast, 0.0331 µM; in the assay on NCI/ADR-RES ovarian, 0.0364 µM. Further, the TGI in the assay on PC-3 prostate, with T-47D breast, in the assay on DU-145 prostate, in the assay with MCF7 breast and in the assay with NCI/ADR-RES ovarian was over 100 µM in each case.

Take `CC(=O)O[C@H]1Cc2c([nH]c3ccccc23)[C@@H](c2ccc(Cl)cc2)N1C(=O)CCNC(C)(C)C`: the GI50 was 3.48 µM with PC-3 prostate; 3.6 µM with T-47D breast; 4.01 µM in the assay on DU-145 prostate; 3.25 µM with MCF7 breast; 5.57 µM with NCI/ADR-RES ovarian. Besides, the TGI in the assay on PC-3 prostate turned out to be 8.12 µM; in the assay with T-47D breast, 8.36 µM; with DU-145 prostate it was 8.45 µM; with MCF7 breast, 7.74 µM; with NCI/ADR-RES ovarian, 12.2 µM.

For `NC(=O)c1ccc(S(=O)(=NS(=O)(=O)c2ccccc2)c2ccc(C(N)=O)cc2)cc1`, the TGI in the assay with PC-3 prostate, in the assay with T-47D breast, in the assay on DU-145 prostate, in the assay on MCF7 breast and with NCI/ADR-RES ovarian was over 100 µM in each case.

For the compound `O=C(O)c1ccccc1/C=C1/Nc2ccccc2C1=O`, the TGI in the assay with PC-3 prostate, in the assay on T-47D breast, in the assay with DU-145 prostate, in the assay with MCF7 breast and in the assay with NCI/ADR-RES ovarian was over 100 µM each time.

For `NC(=S)c1cn(C2OC(CO)C(O)C2O)c2ncnc(N)c12` (stereo not given), the GI50 in the assay with PC-3 prostate was 0.283 µM; with T-47D breast, 0.0195 µM; with DU-145 prostate, 0.217 µM; in the assay with MCF7 breast it was 0.0673 µM; in the assay with NCI/ADR-RES ovarian, 0.192 µM. Besides, the TGI is over 20.1 µM with PC-3 prostate; 0.0929 µM in the assay with T-47D breast; 5.44 µM with DU-145 prostate; 0.303 µM with MCF7 breast; 8.24 µM with NCI/ADR-RES ovarian.

For `Cc1nc(C)c(C(=O)NNC(=O)c2ccccc2)cc1C(=O)NNC(=O)c1ccccc1`, the TGI with PC-3 prostate, with T-47D breast, in the assay with DU-145 prostate, in the assay on MCF7 breast and with NCI/ADR-RES ovarian was over 100 µM in each case.

Regarding `Cn1ccnc1C(=O)/C=C/c1ccc(CC(=O)Nc2cc(F)c(F)c(F)c2)cc1`, the GI50 was 1.26 µM with PC-3 prostate; 1.29 µM in the assay on T-47D breast; 1.67 µM in the assay with DU-145 prostate; 1.36 µM in the assay with MCF7 breast; 1.09 µM in the assay on NCI/ADR-RES ovarian. The TGI with PC-3 prostate was 5.65 µM; in the assay with T-47D breast, 8.14 µM; in the assay on DU-145 prostate, 4.87 µM; in the assay with MCF7 breast, 6.82 µM; in the assay on NCI/ADR-RES ovarian, over 25 µM.

With `CCn1c(-c2nonc2N)nc2c(C#CC(C)(C)O)ncc(OCC3CCNCC3)c21`, the GI50 was 7.48 µM with PC-3 prostate; over 25 µM in the assay with T-47D breast; 8.15 µM with DU-145 prostate; 6.19 µM in the assay on MCF7 breast; 12.8 µM in the assay on NCI/ADR-RES ovarian. Also, the TGI in the assay with PC-3 prostate, in the assay on T-47D breast, in the assay with DU-145 prostate, in the assay on MCF7 breast and in the assay on NCI/ADR-RES ovarian was over 25 µM each time.

On to `CCN(CC)c1ccc(/C=C2/NC(=O)NC2=O)cc1`, for which the GI50 is 12.1 µM with PC-3 prostate; 4.09 µM in the assay with T-47D breast; 5.7 µM with DU-145 prostate; 2.84 µM with MCF7 breast; 1.93 µM in the assay with NCI/ADR-RES ovarian. The TGI with PC-3 prostate was over 100 µM; in the assay on T-47D breast, over 71.5 µM; with DU-145 prostate, 32.6 µM; with MCF7 breast, over 100 µM; with NCI/ADR-RES ovarian, 12.2 µM.

As for `Nc1cc2ccncc2c2ccccc12`, the GI50 with PC-3 prostate is 16.2 µM; in the assay on T-47D breast, 22.3 µM; with DU-145 prostate, 13.2 µM; in the assay on MCF7 breast it was 19.1 µM; with NCI/ADR-RES ovarian, 8.7 µM. In addition, the TGI in the assay with PC-3 prostate, in the assay on T-47D breast, with DU-145 prostate, in the assay on MCF7 breast and in the assay on NCI/ADR-RES ovarian was over 100 µM in each case.

Consider `COc1ccc(C2C3=C(COC3=O)N(CCO)c3cc4c(cc32)CCC4)cc1OC` (stereo not given), for which the GI50 with PC-3 prostate is 0.524 µM; with T-47D breast it was 0.797 µM; in the assay with DU-145 prostate, 0.574 µM; with MCF7 breast, 0.176 µM; in the assay on NCI/ADR-RES ovarian, 2.52 µM. Further, the TGI with PC-3 prostate is over 50 µM; with T-47D breast, over 50 µM; in the assay with DU-145 prostate, 2.13 µM; with MCF7 breast it was over 50 µM; in the assay on NCI/ADR-RES ovarian, over 36.4 µM.

On to `CO[C@H]1/C=C/C=C/C=C/C[C@H](OC(=O)[C@@H](C)NC(=O)C2CCCCC2)[C@H](C)[C@@H](O)/C(C)=C\CCC2=CC(=O)C=C(NC(=O)C1)C2=O`, for which the GI50 with PC-3 prostate is 0.128 µM; with T-47D breast, 0.105 µM; with DU-145 prostate it was 0.127 µM; in the assay with MCF7 breast it was 0.13 µM; with NCI/ADR-RES ovarian it was 4 µM. In addition, the TGI was 0.896 µM in the assay with PC-3 prostate; 1.06 µM with T-47D breast; 1.4 µM in the assay with DU-145 prostate; 3.54 µM with MCF7 breast; over 50 µM in the assay with NCI/ADR-RES ovarian.
